In patent US8785463B2, “GPR 119 agonists” (Cadila Healthcare Limited, priority 2010, dated 2014):

Molecular target: T1, human GPR 119 receptor (Homo sapiens, UniProt Q8TDV5)
T1 construct: expressed in transfected cells
T1 sequence (Q8TDV5 1-335): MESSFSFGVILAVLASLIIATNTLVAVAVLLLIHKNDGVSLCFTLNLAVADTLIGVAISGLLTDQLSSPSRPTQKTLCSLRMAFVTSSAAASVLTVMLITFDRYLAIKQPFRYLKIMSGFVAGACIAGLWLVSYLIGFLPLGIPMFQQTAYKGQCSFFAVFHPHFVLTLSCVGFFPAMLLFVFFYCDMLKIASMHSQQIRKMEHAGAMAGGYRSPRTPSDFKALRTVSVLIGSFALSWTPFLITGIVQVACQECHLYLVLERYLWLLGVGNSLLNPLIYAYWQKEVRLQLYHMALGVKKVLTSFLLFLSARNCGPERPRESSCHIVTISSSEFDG
Test: cAMP assay in stable cell line expressing recombinant human GPR 119 receptor
Type: cell-based
Settings: DMSO = 1
Excerpt: A stable cell line expressing recombinant human GPR 119 receptor was established and used to investigate the efficacy of the compounds of the invention based on the intracellular levels of cyclic AMP (cAMP) using commercially available cAMP kits.

Structure (SMILES) | Fold increase in cyclic AMP with respective to DMSO (10 nM compound) [fold] | Fold increase in cyclic AMP with respective to DMSO (100 nM compound) [fold] | Fold increase in cyclic AMP with respective to DMSO (1 uM compound) [fold]
CCc1cnc(N2CCC(Oc3ncnc(Oc4cccc(/C=C5\SC(=O)NC5=O)c4)c3C)CC2)nc1 [Example 26, (Z)-5-(3-((6-((1-(5-Ethylpyrimidin-2-yl)piperidin-4-yl)oxy)-5-methylpyrimidin-4-yl)oxy)benzylidene)thiazolidine-2,4-dione] | 4.02 | 7.17 | 9.34
Cc1c(Oc2ccc(/C=C3\SC(=O)NC3=O)cc2)ncnc1OC1CCN(c2ncccn2)CC1 [Example 17, (Z)-5-(4-((5-Methyl-6-((1-(pyrimidin-2-yl)piperidin-4-yl)oxy)pyrimidin-4-yl)oxy)benzylidene)thiazolidine-2,4-dione] | 0.84 | 1.06 | 2.57
CC(C)COC(=O)N1CCC(Oc2cc(Oc3ccc(/C=C4\SC(=O)NC4=O)cc3)ncn2)CC1 [Example 53, (Z)-Isobutyl 4-((6-(4-((2,4-dioxothiazolidin-5-ylidene)methyl)phenoxy)pyrimidin-4-yl)oxy)piperidine-1-carboxylate] | 0.99 | 1.79 | 3.59
CC(C)COC(=O)N1CCC(Oc2cc(Oc3ccc(/C=C4\SC(=O)NC4=O)cc3)ncn2)CC1 [Example 34, (Z)-Isobutyl 4-((6-(4-((2,4-dioxothiazolidin-5-ylidene)methyl)phenoxy)pyrimidin-4-yl)oxy)piperidine-1-carboxylate] | 0.73 | 1.09 | 2.22
CCc1cnc(N2CCC(Oc3cc(Oc4cccc(/C=C5\SC(=O)NC5=O)c4)ncn3)CC2)nc1 [Example 55] | 1.18 | 2.86 | 4.77
CCc1cnc(N2CCC(Oc3cc(Oc4ccc(/C=C5\SC(=O)NC5=O)cc4)ncn3)CC2)nc1 [Example 41, (Z)-5-(4-((6-((1-(5-Ethylpyrimidin-2-yl)piperidin-4-yl)oxy)pyrimidin-4-yl)oxy)benzylidene)thiazolidine-2,4-dione] | 1.00 | 1.58 | 3.53
O=C1NC(=O)/C(=C/c2cccc(Oc3cc(OC4CCN(C(=O)OCc5ccccc5)CC4)ncn3)c2)S1 [Example 29, (Z)-Benzyl 4-((6-(3-((2,4-dioxothiazolidin-5-ylidene)methy 1)phenoxy)pyrimidin-4-yl)oxy)piperidine-1-carboxylate] | 2.09 | 3.66 | 8.17
Cc1c(Oc2cccc(/C=C3\SC(=O)NC3=O)c2)ncnc1OC1CCN(C(=O)OCc2ccccc2)CC1 [Example 50, (Z)-Benzyl 4-((6-(3-((2,4-dioxothiazolidin-5-ylidene)methyl)phenoxy)-5-methylpyrimidin-4-yl)oxy)piperidine-1-carboxylate] | 1.73 | 4.66 | 5.74
O=C1NC(=O)/C(=C/c2cccc(Oc3cc(OC4CCN(Cc5ccccc5)CC4)ncn3)c2)S1 [Example 39, (Z)-5-(3-((6-((1-Benzylpiperidin-4-yl)oxy)pyrimidin-4-yl)oxy)benzylidene)thiazolidine-2,4-dione] | 0.85 | 1.38 | 2.20
CC(C)COC(=O)N1CCC(Oc2cc(Oc3cccc(/C=C4\SC(=O)NC4=O)c3)ncn2)CC1 [Example 54, (Z)-Isobutyl 4-((6-(3-((2,4-dioxothiazolidin-5-ylidene)methyl)phenoxy)pyrimidin-4-yl)oxy)piperidine-1-carboxylate] | 1.31 | 2.28 | 4.11
Cc1c(OCC2CCCN2C(=O)OC(C)(C)C)ncnc1Oc1cccc(/C=C2\SC(=O)NC2=O)c1 (stereo not drawn) [Example 23, (Z)-tert-Butyl 2-(((6-(3-((2,4-dioxothiazolidin-5-ylidene)methyl)phenoxy)-5-methylpyrimidin-4-yl)oxy)methyl)pyrrolidine-1-carboxylate] | 0.90 | 1.29 | 1.11
Cc1c(Oc2ccc(/C=C3\SC(=O)NC3=O)cc2)ncnc1OC1CCN(C(=O)OCC(C)C)CC1 [Example 15, (Z)-iso-Butyl 4-((6-(4-((2,4-dioxothiazolidin-5-ylidene)methyl)phenoxy)-5-methylpyrimidin-4-yl)oxy)piperidine-1-carboxylate] | 1.72 | 2.19 | 3.28
CCOC(=O)N1CCC(Oc2ncnc(Oc3ccc(/C=C4\SC(=O)NC4=O)cc3)c2C)CC1 [Example 14, (Z)-Ethyl 4-((6-(4-((2,4-dioxothiazolidin-5-ylidene)methyl)phenoxy)-5-methylpyrimidin-4-yl)oxy)piperidine-1-carboxylate] | 1.40 | 2.40 | 6.61
COC(=O)N1CCC(Oc2ncnc(Oc3ccc(/C=C4\SC(=O)NC4=O)cc3)c2C)CC1 [Example 11, (Z)-Methyl 4-((6-(4-((2,4-dioxothiazolidin-5-ylidene)methyl)phenoxy)-5-methylpyrimidin-4-yl)oxy)piperidine-1-carboxylate] | 1.00 | 1.38 | 2.51
Cc1c(Oc2cccc(/C=C3\SC(=O)NC3=O)c2)ncnc1OC1CCN(c2nc(C(C)C)no2)CC1 [Example 25, (Z)-5-(3-((6-((1-(3-Isopropyl-1,2,4-oxadiazol-5-yl)piperidin-4-yl)oxy)-5-methylpyrimidin-4-yl)oxy)benzylidene)thiazolidine-2,4-dione] | 3.32 | 5.81 | 1.39
Cc1c(Oc2ccc(/C=C3\SC(=O)NC3=O)cc2)ncnc1OC1CCN(Cc2ccccc2)CC1 [Example 38, (Z)-5-(4-((6-((1-Benzylpiperidin-4-yl)oxy)-5-methylpyrimidin-4-yl)oxy)benzylidene)thiazolidine-2,4-dione] | 0.34 | 0.67 | 1.64
O=C1NC(=O)/C(=C/c2ccc(Oc3cc(OC4CCN(C(=O)OCc5ccccc5)CC4)ncn3)cc2)S1 [Example 30, (Z)-Benzyl 4-((6-(4-((2,4-dioxothiazolidin-5-ylidene)methyl)phenoxy)pyrimidin-4-yl)oxy)piperidine-1-carboxylate] | 2.29 | 3.59 | 7.4
CCOC(=O)N1CCC(Oc2ncnc(Oc3cccc(/C=C4\SC(=O)NC4=O)c3)c2C)CC1 [Example 20, (Z)-Ethyl 4-((6-(3-((2,4-dioxothiazolidin-5-ylidene)methyl)phenoxy)-5-methylpyrimidin-4-yl)oxy)piperidine-1-carboxylate] | 0.59 | 2.02 | 2.39
CCc1cnc(N2CCC(Oc3ncnc(Oc4ccc(/C=C5\SC(=O)N(S(C)(=O)=O)C5=O)cc4)c3C)CC2)nc1 [Example 3, (2)-5-(4-((6-((1-(5-Ethylpyrimidin-2-yl)piperidin-4-yl)oxy)-5-methylpyrimidin-4-yl)oxy)benzylidene)-3-(methylsulfonyl)thiazolidine-2,4-dione] | 0.64 | 0.88 | 2.02
